This note sets out measurements from paper doi:10.1101/2024.07.10.602890, “H105A peptide eye drops promote photoreceptor survival in murine and human models of retinal degeneration” (bioRxiv, 2024).

Ends that are not written are not given here.

One series has as its system Rho^P23H/+ mice. Nature of the series: H105A eye drops in Rho P23H/+ mice: BAX/BCL2 immunofluorescence, ONL and OS thickness. Type of series: in vivo, mouse. As for the experimental part:
Fig. 6: Effects of eye drops containing H105A peptide in the photoreceptors of RhoP23H/+ mice (A) Scheme of experimental design. Daily peptide eye drops (5 μl of 1mg/ml peptide) were applied to mice starting at P14 until P19 when immunofluorescence of retinal cross sections was performed. The contralateral control eyes were treated with vehicle HBSS. (B) Immunostaining was performed with antibodies against BAX or BCL2 (green), and DAPI (blue). Histograms show quantification of immunofluorescence intensity for BAX and BCL2 markers. […] Each individual data point represents the average of one retina, with statistical significance determined by unpaired t-test (****p < 0.00001). Scale bar = 10 μm. […] (D) Quantification of ONL thickness represented in the spider graph confirmed a significant preservation in the ventral retina. […] Presented as average ± SEM, with statistics performed using One-way ANOVA * p<0.05
Eyes from Rho^P23H/+ mice eyes were enucleated and fixed in Davidson’s fix (Formaldehyde 8% (Merck, cat. F8775); Ethanol 32% (Carlo Erba, cat. 414608); Acetic Acid 10% (Merck, cat. 695092) over-night. After embedding in paraffin, 14 μm sections were collected. For TUNEL, sections were treated with 0.1 M Citrate Buffer pH 6 (Tri-sodium Citrate 10 mM (Carlo Erba, cat. 368007); Citric Acid 0.2 mM (Merck, cat: 251275) in microwave for 5 minutes, then labeling was performed for one hour at 37°C using a In Situ Cell Death Detection Kit (Merck, cat. 12156792910). Rod photoreceptors were labeled with anti-RHO 1D4 antibody followed by Alexa Fluor 568 anti-mouse secondary antibody (see Table S3). Cone photoreceptors were labeled with peanut agglutinin (PNA, Vector Laboratories, cat. FL-1071). GFP localization in control transduced retinas was identified with specific anti-GFP antibodies and Alexa Fluor 488 anti-mouse secondary antibody (see Table S3). For nuclear staining, 0.1 μg/mL DAPI was used. Slides were mounted with Mowiol 4–88 (Merck) and images acquired with a Zeiss Axio Imager A2 fluorescence microscope. To count TUNEL positive cells the RETINA Analysis Tool kit for ImageJ was used ([52]).
To generate spider plots, the ONL thickness was measured from images acquired with light microscopy of the retina sections stained with H&E or images of retina sections stained with DAPI with a dorsal-ventral orientation. The ONL thickness in the entire retina sections was measured at 5 different positions from both sides of the optic nerve (ON) using ImageJ, as described before ([28]). Alternatively, for DAPI stained images, a customed macro implemented in ImageJ was used to select only the ONL.

Series [1] can be described thus: Stability of peptide H105A against temperature (Table S2). Type of series: physicochemical. As for the experimental part: Lyophilized peptides were dissolved in sterile HBSS at 1 mg/ml and stored at −20 °C. Before the peptides were used, the peptide solution was brought to room temperature and subjected to centrifugation (Eppendorf, Centrifuge 5430R) at 20,800 g for 10 min at 4°C to clear and separate particulate material. In case a precipitate was found, the pH of the solution was adjusted to neutral pH with either NaOH or HCl and all peptides were soluble. The concentration of peptide solutions was determined using spectrophotometry (NanoDrop, Thermo Fisher Scientific).
Table S2. Stability of 17-mer[H105A] peptide.
Concentration (mg/mL) Store Concentration (mg/mL)
*FT, Freeze and thaw cycles daily

The mark [2] stands for this setting: daily eye drops 5 μl of 1 mg/ml P14 to P19, vs contralateral HBSS.

Take QRTESIIARALYYDLIS [H105A]: the “BAX level (immunofluorescence)” value in the series on Rho^P23H/+ mice (setting [2]) is listed as “attenuated the levels of BAX”. In the series on Rho^P23H/+ mice (setting [2]), the “BCL2 level (immunofluorescence)” value is “increased BCL2”. Moreover, the “outer segments (OS) of rod photoreceptors labeled by rhodopsin” value in the series with Rho^P23H/+ mice (daily eye drops P14 to P19, P19, n = 9) is “significantly preserved”. In the series on Rho^P23H/+ mice (daily eye drops P14 to P19, assessed at P19), the ONL thickness entry is recorded as “significant preservation in the ventral part of the retina”. The “Concentration Day1” value is 1040 µg/mL in series [1] (sample 1, before storage at RT, peptide solution, spectrophotometry (NanoDrop)); 1040 µg/mL in series [1] (sample 2, before storage at 4°C); 1040 µg/mL in series [1] (sample 3, before storage at -20°C); 1040 µg/mL in series [1] (sample 4, before storage at -20°C [FT]).
